From patent US9145414B2, “1,2,4-triazine-6-carboxamide derivative” (TAIHO PHARMACEUTICAL CO., LTD., priority 2011, dated 2015)

Each molecule was assayed against human Syk protein (Homo sapiens (Human), UniProt P43405) (assay: Syk kinase inhibition test). Details: Table 95; read-out: SYK inhibitory activity IC50.
Format: biochemical
Experimental: Finally, phosphorylated peptides and non-phosphorylated peptides were separated therebetween using LabChip™ 3000 system (Caliper Life Sciences, Inc., excitation wavelength: 488 nm, detection wavelength: 530 nm). Their respective amounts were measured, and the rate of phosphorylation reaction was then determined from the ratio between the amounts. The concentration at which the compound can inhibit 50% phosphorylation reaction is defined as an IC50 value (μM).
Also, known 1,2,4-triazine-6-carboxamide derivatives A, B, and C (WO2000/075113 (A: compound No. 121 and B: compound No. 154) and WO2000/076980 (C: compound No. 39)) were synthesized as control compounds. Their IC50 values (μM) were calculated in the same way as above and then compared with that of the compound of the present invention.

| Structure (SMILES) | IC50 [nM] |
| --- | --- |
| [2H]C([2H])([2H])C([2H])([2H])n1ncc2cc(Nc3nc(N[C@@H]4CCCC[C@@H]4N)nnc3C(N)=O)ccc21 [Example 5, 3-((1R,2S)-2-aminocyclohexylamino)-5-(1-(ethyl-d5)-1H-indazol-5-ylamino)-1,2,4-triazine-6-carboxamide] | 0.52 |
| CC(C)(C)n1cc2cc(Nc3nc(N[C@@H]4CCCC[C@@H]4N)nnc3C(N)=O)cc(-n3cccn3)c2n1 [Example 66, 3-(((1R,2S)-2-aminocyclohexyl)amino)-5-((2-(tert-butyl)-7-(1H-pyrazol-1-yl)-2H-indazol-5-yl)amino)-1,2,4-triazine-6-carboxamide] | 0.61 |
| NC(=O)c1nnc(N[C@@H]2CCCC[C@@H]2N)nc1Nc1cccc2c1ccn2[C@H]1CC[C@H](O)CC1 [Example 73, 3-(((1R,2S)-2-aminocyclohexyl)amino)-5-((1-(trans-4-hydroxycyclohexyl)-1H-indol-4-yl)amino)-1,2,4-triazine-6-carboxamide] | 0.37 |
| CCn1cc2cc(Nc3nc(N[C@@H]4CCCC[C@@H]4N)nnc3C(N)=O)cc(-n3cccn3)c2n1 [Example 79, 3-(((1R,2S)-2-aminocyclohexyl)amino)-5-((2-ethyl-7-(1H-pyrazol-1-yl)-2H-indazol-5-yl)amino)-1,2,4-triazine-6-carboxamide] | 0.37 |
| Cn1ccc2c(Nc3nc(N[C@@H]4CCCC[C@@H]4N)nnc3C(N)=O)cccc21 [Example 3, 3-((1R,2S)-2-aminocyclohexylamino)-5-(1-methyl-H-indol-4-ylamino)-1,2,4-triazine-6-carboxamide] | 0.36 |
| Cc1cc(Nc2nc(N[C@@H]3CCOC[C@@H]3N)nnc2C(N)=O)cc2cn(C(C)(C)CO)nc12 [Example 99, 3-(((3R,4R)-3-aminotetrahydro-2H-pyran-4-yl)amino)-5-((2-(1-hydroxy-2-methylpropan-2-yl)-7-methyl-2H-indazol-5-yl)amino)-1,2,4-triazine-6-carboxamide] | 0.63 |
| CCn1cc2ccc(Nc3nc(N[C@@H]4CCCCC[C@@H]4N)nnc3C(N)=O)cc2n1 [Example 316, 3-(((1R,2S)-2-aminocycloheptyl)amino)-5-((2-ethyl-2H-indazol-6-yl)amino)-1,2,4-triazine-6-carboxamide] | 0.31 |
| CCOC[C@H](N)[C@@H](C)Nc1nnc(C(N)=O)c(Nc2cc(C)c3ncccc3c2)n1 [Example 282] | 0.48 |
| N#Cc1cc(Nc2nc(N[C@@H]3CCCC[C@@H]3N)nnc2C(N)=O)c2ccsc2c1 [Example 208] | 0.4 |
| CCn1ncc2c(Nc3nc(N[C@@H]4CCCC[C@@H]4N)nnc3C(N)=O)cccc21 [Example 107, 3-(((1R,2S)-2-aminocyclohexyl)amino)-5-((1-ethyl-1H-indazol-4-yl)amino)-1,2,4-triazine-6-carboxamide] | 0.61 |
| NC(=O)c1nnc(N[C@@H]2CCCC[C@@H]2N)nc1Nc1cccc2sccc12 [Example 2, 3-((1R,2S)-2-aminocyclohexylamino)-5-(benzo[b]thiophen-4-ylamino)-1,2,4-triazine-6-carboxamide] | 0.46 |
| CCn1ncc2c(C)cc(Nc3nc(N[C@@H]4CCOC[C@@H]4N)nnc3C(N)=O)cc21 [Example 310] | 0.59 |
| NC(=O)c1nnc(N[C@@H]2CCCC[C@@H]2N)nc1Nc1ccc2nn(C3CCC3)cc2c1 [Example 11, 3-((1R,2S)-2-aminocyclohexylamino)-5-(2-cyclobutyl-2H-indazol-5-ylamino)-1,2,4-triazine-6-carboxamide] | 0.47 |
| Cc1cc2c(Nc3nc(N[C@@H]4CCCC[C@@H]4N)nnc3C(N)=O)cccc2n1C1CC1 [Example 33, 3-((1R,2S)-2-aminocyclohexylamino)-5-(1-cyclopropyl-2-methyl-H-indol-4-ylamino)-1,2,4-triazine-6-carboxamide] | 0.71 |
| COc1ccc2sc(Nc3nc(N[C@@H]4CCCC[C@@H]4N)nnc3C(N)=O)c(C)c2c1 [Example 48, 3-((1R,2S)-2-aminocyclohexylamino)-5-(5-methoxy-3-methylbenzo[b]thiophen-2-ylamino)-1,2,4-triazine-6-carboxamide] | 0.27 |
| NC(=O)c1nnc(N[C@@H]2CCCC[C@@H]2N)nc1Nc1cncc(C2CC2)c1 [Example 16, 3-((1R,2S)-2-aminocyclohexylamino)-5-(5-cyclopropylpyridin-3-ylamino)-1,2,4-triazine-6-carboxamide] | 0.94 |
| NC(=O)c1nnc(N[C@@H]2CCCC[C@@H]2N)nc1Nc1cccc2nn(C(F)F)cc12 [Example 209] | 0.33 |
| CC(C)(C)n1cc2cc(Nc3nc(N[C@@H]4CCOC[C@@H]4N)nnc3C(N)=O)cc(Cl)c2n1 [Example 100, 3-(((3R,4R)-3-aminotetrahydro-2H-pyran-4-yl)amino)-5-((2-(tert-butyl)-7-chloro-2H-indazol-5-yl)amino)-1,2,4-triazine-6-carboxamide] | 0.41 |

The next lines start with the values.

| IC50 [nM] | Structure (SMILES) |
| --- | --- |
| 0.85 | Cn1ccc(-n2ccc3c(Nc4nc(NCC5(N)CCC5)nnc4C(N)=O)cccc32)n1 [Example 106, 3-(((1-aminocyclobutyl)methyl)amino)-5-((1-(1-methyl-1H-pyrazol-3-yl)-1H-indol-4-yl)amino)-1,2,4-triazine-6-carboxamide] |
| 0.55 | CCn1ncc2cc(Nc3nc(N[C@H](C)[C@@H](N)COC)nnc3C(N)=O)cc(C)c21 [Example 311, 3-(((2R,3R)-3-amino-4-methoxybutan-2-yl)amino)-5-((1-ethyl-7-methyl-1H-indazol-5-yl)amino)-1,2,4-triazine-6-carboxamide] |
| 0.55 | NC(=O)c1nnc(N[C@@H]2CCCC[C@@H]2N)nc1Nc1cc(-c2ncccn2)cs1 [Example 76, 3-(((1R,2S)-2-aminocyclohexyl)amino)-5-((4-(pyrimidin-2-yl)thiophen-2-yl)amino)-1,2,4-triazine-6-carboxamide] |
| 0.5 | CCn1nc(C)c2cc(Nc3nc(N[C@@H]4CCCC[C@@H]4N)nnc3C(N)=O)ccc21 [Example 56, 3-((1R,2S)-2-aminocyclohexylamino)-5-(1-ethyl-3-methyl-1H-indazol-5-ylamino)-1,2,4-triazine-6-carboxamide] |
| 0.49 | Cn1cc(-c2cc(Nc3nc(N[C@@H]4CCCC[C@@H]4N)nnc3C(N)=O)c3cnn(C)c3c2)cn1 [Example 13, 3-((1R,2S)-2-aminocyclohexylamino)-5-(1-methyl-6-(1-methyl-1H-pyrazol-4-yl)-1H-indazol-4-ylamino)-1,2,4-triazine-6-carboxamide] |
| 0.42 | CCn1nc(C)c2ccc(Nc3nc(N[C@@H]4CCCC[C@@H]4N)nnc3C(N)=O)cc21 [Example 50, 3-((1R,2S)-2-aminocyclohexylamino)-5-(1-ethyl-3-methyl-1H-indazol-6-ylamino)-1,2,4-triazine-6-carboxamide] |
| 0.4 | NC(=O)c1nnc(N[C@@H]2CCCC[C@@H]2N)nc1Nc1ccc2ncccc2c1 [Example 1, 3-((1R,2S)-2-aminocyclohexylamino)-5-(quinolin-6-ylamino)-1,2,4-triazine-6-carboxamide] |
| 0.37 | Cc1cc(Nc2nc(N[C@@H]3CCOC[C@@H]3N)nnc2C(N)=O)cc2cn(C(C)(C)C)nc12 [Example 61, 3-(((3R,4R)-3-aminotetrahydro-2H-pyran-4-yl)amino)-5-((2-(tert-butyl)-7-methyl-2H-indazol-5-yl)amino)-1,2,4-triazine-6-carboxamide] |
| 0.37 | Cc1cc(Nc2nc(N[C@@H]3CCCC[C@@H]3N)nnc2C(N)=O)cc2cn(C(F)F)nc12 [Example 62, 3-(((1R,2S)-2-aminocyclohexyl)amino)-5-((2-(difluoromethyl)-7-methyl-2H-indazol-5-yl)amino)-1,2,4-triazine-6-carboxamide] |
| 0.34 | COC[C@H](N)[C@@H](C)Nc1nnc(C(N)=O)c(Nc2cc(C)c3c(cnn3C(C)C)c2)n1 [Example 284] |
| 0.33 | Cc1cc(Nc2nc(N[C@@H]3CCCC[C@@H]3N)nnc2C(N)=O)cc2cccnc12 [Example 259, 3-(((1R,2S)-2-aminocyclohexyl)amino)-5-((8-methylquinolin-6-yl)amino)-1,2,4-triazine-6-carboxamide] |
| 0.26 | NC(=O)c1nnc(N[C@@H]2CCCC[C@@H]2N)nc1Nc1ccc2sccc2c1 [Example 220] |

What follows are molecules tested on SU-DHL-6 cells (diffuse large-cell lymphoma cell line) (assay: Cell growth inhibition test). Details: Homo sapiens, 72 h; SU-DHL-6 cells, 3 days culture, Table 96; read-out: Cell growth inhibition IC50.
Format: cell-based
Experimental: The compound of the present invention was serially diluted with dimethyl sulfoxide and then added to an RPMI1640 medium containing 10% FBS. Each resulting solution was added at a concentration of 100 μl/well to the preceding SU-DHL-6 cell culture plate (final concentration of the compound: 10, 3, 1, 0.3, 0.1, 0.03, 0.01, and 0.003 μM). The cells were cultured at 37° C. for 3 days in an incubator containing 5% CO2. The cells thus cultured were left at room temperature for 30 minutes and then centrifuged at 1500 rpm for 3 minutes using a centrifuge (Hitachi Koki Co., Ltd., Himac CF7D2). A 100 μl aliquot of the supernatant was removed from each well to allow 100 μl of the cell culture solution to remain therein. This 100 μl of the remaining cell culture solution was supplemented with an equal amount of CellTiter-Glo Luminescent Cell Viability Assay (Promega KK, Cat#: G7573), and the mixture was then shaken for 1 minute using a plate mixer. The reaction solution was left in the dark for 10 minutes. Then, luminescence intensity derived from live cells of each well was measured using a microplate reader (PerkinElmer Inc., ARVOsx). […] Likewise, the IC50 values (μM) of the control compounds were also calculated and then compared with that of the compound of the present invention. Rate of cell growth inhibition(%)=(C−T)/C×100 T: luminescence intensity (count per second) of a well supplemented with the test compound C: luminescence intensity (count per second) of a well non-supplemented with the test compound

| Structure (SMILES) | IC50 [nM] |
| --- | --- |
| NC(=O)c1nnc(N[C@@H]2CCCC[C@@H]2N)nc1Nc1cccc2c1ccn2[C@H]1CC[C@H](O)CC1 [Example 73, 3-(((1R,2S)-2-aminocyclohexyl)amino)-5-((1-(trans-4-hydroxycyclohexyl)-1H-indol-4-yl)amino)-1,2,4-triazine-6-carboxamide] | 53 |
| CCn1cc2cc(Nc3nc(N[C@@H]4CCCC[C@@H]4N)nnc3C(N)=O)cc(-n3cccn3)c2n1 [Example 79, 3-(((1R,2S)-2-aminocyclohexyl)amino)-5-((2-ethyl-7-(1H-pyrazol-1-yl)-2H-indazol-5-yl)amino)-1,2,4-triazine-6-carboxamide] | 93 |
| Cn1ccc2c(Nc3nc(N[C@@H]4CCCC[C@@H]4N)nnc3C(N)=O)cccc21 [Example 3, 3-((1R,2S)-2-aminocyclohexylamino)-5-(1-methyl-H-indol-4-ylamino)-1,2,4-triazine-6-carboxamide] | 91 |
| CCn1ccc2c(Nc3nc(N[C@@H]4CCCC[C@@H]4N)nnc3C(N)=O)cccc21 [Example 17, 3-((1R,2S)-2-aminocyclohexylamino)-5-(1-ethyl-1H-indol-4-ylamino)-1,2,4-triazine-6-carboxamide] | 76 |

Further lines, results first:

| IC50 [nM] | Structure (SMILES) |
| --- | --- |
| 164 | Cc1cc(Nc2nc(N[C@@H]3CCOC[C@@H]3N)nnc2C(N)=O)cc2cn(C(C)(C)C)nc12 [Example 61, 3-(((3R,4R)-3-aminotetrahydro-2H-pyran-4-yl)amino)-5-((2-(tert-butyl)-7-methyl-2H-indazol-5-yl)amino)-1,2,4-triazine-6-carboxamide] |
| 75 | Cc1cc(Nc2nc(N[C@@H]3CCCC[C@@H]3N)nnc2C(N)=O)cc2cccnc12 [Example 259, 3-(((1R,2S)-2-aminocyclohexyl)amino)-5-((8-methylquinolin-6-yl)amino)-1,2,4-triazine-6-carboxamide] |
| 180 | NC(=O)c1nnc(N[C@@H]2CCCC[C@@H]2N)nc1Nc1ccc2sccc2c1 [Example 220] |
